Source: US20240209047A1, “GROWTH FACTOR CONJUGATES” (priority 2021, published 2024)
“Also recorded” adds a separate entry of the source.

What was measured:
HaCaT cells [1] = experiment: HaCaT proliferation with soluble EGF; type: cell-based, human; details: 1% FBS, 0-80 ng/ml soluble EGF
Experimental: FIG. 8. In vitro proliferation rates of spontaneously immortalized human keratinocytes (HaCaT cells), cultured in growth medium containing 1% (v/v) serum (FBS), treated with 0-80 ng/ml soluble EGF. Results are mean f standard deviation, ***p<0.001 (ANOVA followed by Dunnett's multiple comparison test) compared with control cultures.
EGF is a key growth factor involved in triggering wound re-epithelialization, one of the critical early events in wound closure, whose prolonged exposure is required for eliciting a cellular response (Bennett N. T. and Schultz G. S., 1993, Bennett N. T. and Schultz G. S., 1993, 171 Gipson and Inatomi, 1995, Jost et al., 2000). […] A full thickness splinted wound (8 mm in diameter) was created on each heterozygous (db+/−; BKS.Cg-m+/+ Leprdb) mouse as described previously (Park Shin Ae et al., 2014). […] Functional bioactivity of EGF was determined in vitro using spontaneously transformed keratinocytes (HaCaT cell line) from histologically normal skin (FIG. 8). As a possible contributor to the lack of significant positive effect, we observed a rapid loss of recombinant human EGF from the surface of wounds within 1 h of topical administration (FIG. 2B). […]

[2] = system: full thickness splinted wounds (8 mm diameter) of db/db mice; experiment: Wound closure of full thickness splinted dermal wounds in diabetic mice; type: in vivo, mouse; details: for percentage wound closure: treated 6 times over 11 days (every other day)
Source text: In vivo studies: All procedures adhered to the recommendations in the Guide for the Care and Use of Laboratory Animals of the National Institutes of Health. The protocol for this experiment was approved by the Institutional Animal Care and Use Committee of University of California, Davis.
Creating of full thickness splinted dermal wounds: Genetically diabetic 12 week old male mice (db/db; BKS.Cg-m+/+Leprdb; Jackson Laboratories, Bar Harbor, ME) were used for this study. […] 8 mm Full thickness wounds were created on the dorsal surface of db/db mice as described previously (Park S. A. et al., 2014).
Mice in the sEGF group received native EGF (300 ng) dissolved in PEG immediately after wounding and twice daily until day 10. The NoTx group remained without any treatment through the study period. All wounds were dressed using a sterile coverslip and a semi-occlusive bandage.
(§1) Clinical and histological analyses: All analyses were performed as described previously (Park S. A. et al., 2014). Briefly, wounds were clinically evaluated and imaged daily, and the wound area was measured using image analysis software, and percentage wound closure was calculated. Mice were humanely euthanized on day 11 and the entire wound bed was harvested. Histologic analyses was performed by a board-certified veterinary pathologist.

[3] = Persistence of EGF in the wound bed by ELISA specific to anti-human EGF; type: in vivo, mouse; details: for persistence of EGF in the wound bed: mass per mm^2 of tissue, in vivo
Experimental: Detection of crosslinked EGF on dermal wounds: Persistence of CxEGF, qEGF and soluble EGF in the wound bed was determined using ELISA specific to anti-human EGF. Mice were euthanized at each time point and the wound bed was harvested. The tissue was digested using 7.5 Units/ml collagenase in the presence of 1 μM dithiothreitol (DTT) over 2 h at 37° C. This was centrifuged at 14000 RPM and the supernatant following which ELISA was performed. Specificity of the ELISA was verified using mouse recombinant EGF. Amount of EGF (mg) measured on the wound bed was expressed per surface area (mm^2) of the tissue.
The feasibility to tether sulfo-SMCC modified nanospheres to graft tissue was first evaluated (FIG. 9). Full thickness splinted wounds (8 mm in diameter) were created on heterozygous (db+/−;BKS.Cg-m+/+Leprdb) mouse as described above. Wound surfaces were treated with a reducing agent (tris(2-carboxyethyl)phosphine; TCEP) to break the disulfide bonds. The crosslinkers and reducing agents were used at non-toxic doses (FIG. 10). […] Immediately after the treatment, wounds were covered with a semi-occlusive dressing to minimize scab formation (Park Shin Ae et al., 2014). Wound beds were harvested at various time points and the presence of EGF attached on the surfaces was determined by ELISA (FIG. 3B). […] A gradual decrease in the amount of surface immobilized EGF was observed after 2 days. […] We note that the number of disulfide bonds available for anchoring CxEGF is difficult to ascertain in vivo and may thus contribute to the partial surface coverage. Secondary validation of the linkage chemistry was done using an in vitro model of the surface chemistry using (3 mercaptopropyl)trimethoxysilane (MPTS) or trimethoxy(propyl)silane (TPS) and maleimide by a reduction in contact angle and increased thickness of deposition (FIG. 3D). The mercapto group on the MPTS simulated sulfhydryl groups present on a native wound bed, and TPS was devoid of any functional group simulating a passivated wound surface.

HaCaT cells [4] = experiment: HaCaT proliferation (MTT) on surfaces with covalently immobilized EGF; type: cell-based, human
Experimental: Human 433 immortalized kertinocytes (HaCaT) cells were cultured in growth medium containing 1% (v/v) serum (FBS). The proliferation rates are expressed as % control when cultured on surfaces [trimethoxy(propyl)silane (TPS) or 3-mercaptopropyl trimethoxysilane (3-MPTS)] immobilized with EGF. As positive control, cells were also cultured in the growth medium containing 10% 437 (v/v) FBS. ***p<0.001, one-way ANOVA followed by Dunnett's multiple comparison test compared with control cultures (cells cultured in media with 1% serum).
In vitro surface modification: An in vitro model of the wound surface was generated by silanizing glass coverslips with either trimethoxy(propyl)silane (TPS) or 3-mercaptopropyl trimethoxysilane (3-MPTS). Disulfide bonds (if any) on the surface of the silanated coverslips were reduced using 10 μM tris(2-carboxyethyl)phosphine (TCEP) for 10 min to generate an abundance of —SH bonds. These exposed —SH groups were used to covalently immobilize EGF.
Measuring bioactivity in vitro: Human immortalized kertinocytes (HaCaT cells) were plated on unmodified glass surfaces, or on surfaces covalently immobilized with EGF, or on surfaced with quenched EGF, in Dulbeccos' modified Eagle's medium (DMEM) supplemented with 1% fetal bovine serum and proliferation was determined after 5 days using the MTT assay (Raghunathan et al., 2013). […]

[5] = system: wound bed from a db/db mouse; experiment: Histopathological evaluation of wound bed of db/db mice after 11 days; type: in vivo
Source text: FIG. 5A-C. Histopathological evaluations of a wound bed from a db/db mouse treated with/without crosslinked EGF over 11 days upon wounding. Scale Bars=500 μm. (A) Measurement of epithelial gap (blue line) and reepithelialization (red line). The epithelial gap was defined as the distance between the advancing edges of keratinocyte migration measured in millimeters. Length of reepithelialization was defined as the length of the layer of proliferating keratinocytes covering the wound area. This value was obtained by measuring s the distance between the free edge of the keratinocyte layer and the base where the cells were still associated with native, non-affected dermal tissue. The final value was the sum of distance in millimeters of both sides. H&E staining. Graphs indicate the mean f standard deviation of epithelial gap/re-epithelialized measure on surface wounds after 11 days with or without treatments. (B) Measurement of the fibrovascular dermal proliferation in the wound bed. Using picrosirius red stain under polarized light the bright collagen fibers of the wound bed are highlighted and automatically measured by the software. The final data is expressed as a percentage of outlined wound area comprised of collagen. Graphs indicate the mean f standard deviation of % collagen measured in surface wounds after 11 days with or without treatments. […] The inflammatory response was assessed using a semi-quantitative scoring system ranging from 0 to 4 where 0 indicates no inflammation, 1 indicates 0-25% of the wound area affected, 2 indicates 25-50% of the wound area affected, 3 indicates 50-75% of the wound area affected, and 4 indicates 75% of the wound area affected. H&E staining. Graphs indicate the mean±standard deviation of inflammation score. *p<0.05 compared with qEGF-6x, #p<0.05 compared with NoTx (t-test/Mann-Whitney rank sum test).
FIG. 11. Percentage distribution of inflammatory cells in wound bed of diabetic mice at the end of 11 days. […] Results are mean f standard deviation of the ratio of positive cells to total number of cells in the wound bed.
as §1

deep-partial burn wounds = details: cited from earlier work
[6] = 6x, every other day over 11 days
[7] = 30 ng crosslinked onto TCEP treated wound surface
[8] = ratio of positive cells to total cells, after 11 days

Substance: sEGF: Human recombinant EGF (ProspecBio) dissolved in 5% (w/v) polyethylene glycol, applied topically
- in vitro proliferation rate (HaCaT cells [1]): increased cell proliferation
- percentage wound closure / epithelial closure ([2]; soluble EGF 300 ng topically twice daily, over 11 days, db/db mice): did not significantly alter wound healing or epithelial closure; also recorded: did not promote epithelial closure
- persistence of EGF in the wound bed ([3]; ELISA): rapidly removed from wound surface
- loss of recombinant human EGF from the surface of wounds after topical administration ([3]; topical administration, wound surface, ELISA): ≤ 1 h

Substance: CxEGF: Human recombinant EGF conjugated with sulfo-SMCC, covalently crosslinked onto TCEP-reduced wound surface
- proliferation rate (% control) (HaCaT cells [4]; HaCaT, 1% FBS, TPS or 3-MPTS surfaces immobilized with EGF): strongly promotes proliferation
- increase in cell proliferation (HaCaT cells [4]; immobilized on MPTS or TPS coated glass, MTT, after 3 days of treatment): over 2 fold
- wound closure rate (reduction of wound radii) ([2]; 1x, immobilization only once immediately after wounding): no significant effects on wound closure rate
- wound closure rate (decrease in wound radius per day) ([2]; 3x, every 4 days): significantly higher wound closure rate
- wound closure rate (decrease in wound radius per day) [2, 6]: significantly higher wound closure rate
- percentage wound closure ([2]; db/db mice): significant acceleration of wound closure; also recorded: significantly improved wound healing
- apparent surface coverage [3, 7]: 2 pg/mm^2
- sustained surface immobilization of the growth factor [3, 7]: 2 days
- persistence of EGF in the wound bed ([3]; ELISA): increases persistence of EGF on the wound surface
- apparent surface coverage (equivalent) ([3]; equivalent of the pg/mm^2 value): 1.99×10^8 molecules/mm^2
- surface coverage as fraction of a theoretical monolayer of EGF ([3]; theoretical monolayer 213.6 pg/mm^2): 1/100
- inflammation (semi-quantitative score 0 to 4) ([5]; 6x, day 11, H&E): reduction in inflammation
- epithelial gap ([5]; 6x, day 11, H&E, versus qEGF, no treatment or soluble EGF): dramatic decreases in epithelial gap
- inflammation (semi-quantitative score 0 to 4) ([5]; 6x, day 11, H&E, listed as Cross linked EGF): elicited less inflammation
- collagen content ([5]; 6x, day 11, picrosirius red): comparable collagen content
- F-480 positive macrophages in wound bed [5, 8]: No statistically significant differences
- GR1 positive granulocytes in wound bed [5, 8]: No statistically significant differences

Substance: qEGF: s-SMCC conjugated EGF with its maleimide group quenched with β-mercaptoethanol (NSDSECPLSHDGYCLHDGVCMYIEALDKYACNCVVGYIGERCQYRDLKWWELR; Epidermal growth factor sulfo-SMCC, maleimide quenched with β-mercaptoethanol; UniProt P01133 971-1023, looked up) [reference compound]
- wound closure rate (decrease in wound radius per day) [2, 6]: ineffective in altering wound healing rates
- percentage wound closure ([2]; db/db mice): NoTx group had a significantly higher percentage wound closure compared to the qEGF group

Substance: aFGF: topical recombinant human acidic fibroblast growth factor
- fully healed rate (deep-partial burn wounds; deep-partial burn wounds, versus placebo): 53.85%
- mean healed time of the burn wounds (deep-partial burn wounds; placebo 18.92±0.49, p=0.035): 17.23±0.53
